Common to all, as to experiment: relative viability (nuclei count vs DMSO), 5 days (fraction); higher = more cells survive
Compound in the test “Tosedostat + Bortezomib”: CC(C)C[C@@H](C(=O)N[C@H](C(=O)OC1CCCC1)c1ccccc1)[C@H](O)C(=O)NO [Tosedostat] + CC(C)C[C@H](NC(=O)[C@H](Cc1ccccc1)NC(=O)c1cnccn1)B(O)O [Bortezomib] (partner 0.002 µM)
An outline of the steps: (§1)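 Values are medians from duplicate plates. Each reflects relative viability, defined as the nuclei count of treated wells over that of vehicle wells. Lung cancer cell lines in 1536-well plates were pin-tool dosed one day after seeding with one drug alone or with a fixed anchor-drug dose plus five library-drug doses (not always all listed) in √10 steps, then fixed, stained and imaged at 4× after 5 days.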

Compound in the test “Tosedostat + Pictilisib”: CC(C)C[C@@H](C(=O)N[C@H](C(=O)OC1CCCC1)c1ccccc1)[C@H](O)C(=O)NO [Tosedostat] + CS(=O)(=O)N1CCN(Cc2cc3nc(-c4cccc5[nH]ncc45)nc(N4CCOCC4)c3s2)CC1 [Pictilisib] (partner 1 µM)
The procedure, abridged:
as §1

Compound in the test “Tosedostat + Olaparib”: CC(C)C[C@@H](C(=O)N[C@H](C(=O)OC1CCCC1)c1ccccc1)[C@H](O)C(=O)NO [Tosedostat] + O=C(c1cc(Cc2n[nH]c(=O)c3ccccc23)ccc1F)N1CCN(C(=O)C2CC2)CC1 [Olaparib] (partner 8 µM)
The procedure, abridged:
as §1

Compound in test [1]: CC1=NN=C(O1)C2=NN=C(C=C2)N3CCC(CC3)OC4=C(C=CC(=C4)F)Cl + Cc1nc(Nc2ncc(C(=O)Nc3c(C)cccc3Cl)s2)cc(N2CCN(CCO)CC2)n1 [Dasatinib] (partner 0.075 µM)
An outline of the steps:
as §1

The values that follow come from the supplement of paper PMC10307832.

Take NCI-H1792: the relative viability with Tosedostat + Bortezomib (first compound 0.02 µM) came out at 1.01; with Tosedostat + Bortezomib (first compound 0.06325 µM), 0.991; with Tosedostat + Bortezomib (first compound 0.2 µM) it was 0.934; in the test with Tosedostat + Bortezomib (first compound 0.6325 µM), 0.952; with Tosedostat + Bortezomib (first compound 2 µM) it was 1; with Tosedostat + Pictilisib (first compound 0.02 µM), 0.282. Moreover, the relative viability in the test with Tosedostat + Pictilisib (first compound 0.06325 µM) was determined as 0.279; in the test with Tosedostat + Pictilisib (first compound 0.2 µM), 0.272; with Tosedostat + Pictilisib (first compound 0.6325 µM) it was 0.232; in the test with Tosedostat + Pictilisib (first compound 2 µM) it was 0.276; in the test with Tosedostat + Olaparib (first compound 0.02 µM), 0.481; with Tosedostat + Olaparib (first compound 0.06325 µM), 0.425. Further, the relative viability in the test with Tosedostat + Olaparib (first compound 0.2 µM) is 0.386; with Tosedostat + Olaparib (first compound 0.6325 µM) it was 0.317; with Tosedostat + Olaparib (first compound 2 µM), 0.432; in test [1] (first compound 0.253 µM) it was 0.578; in test [1] (first compound 0.8 µM), 0.714; in test [1] (first compound 2.53 µM), 0.78. In addition, the relative viability in test [1] (first compound 8 µM) is 0.707.
With NCI-H1915, the relative viability in the test with Tosedostat + Bortezomib (first compound 0.02 µM) is 1.03; with Tosedostat + Bortezomib (first compound 0.06325 µM), 0.942; with Tosedostat + Bortezomib (first compound 0.2 µM) it was 1.01; with Tosedostat + Bortezomib (first compound 0.6325 µM), 0.956; with Tosedostat + Bortezomib (first compound 2 µM) it was 0.946; with Tosedostat + Pictilisib (first compound 0.02 µM), 1.24. In addition, the relative viability with Tosedostat + Pictilisib (first compound 0.06325 µM) stood at 0.955; in the test with Tosedostat + Pictilisib (first compound 0.2 µM), 1; with Tosedostat + Pictilisib (first compound 0.6325 µM) it was 0.815; with Tosedostat + Pictilisib (first compound 2 µM), 0.838; in the test with Tosedostat + Olaparib (first compound 0.02 µM), 0.281; with Tosedostat + Olaparib (first compound 0.06325 µM), 0.234. Besides, the relative viability turned out to be 0.244 in the test with Tosedostat + Olaparib (first compound 0.2 µM); 0.203 with Tosedostat + Olaparib (first compound 0.6325 µM); 0.236 with Tosedostat + Olaparib (first compound 2 µM); 0.324 in test [1] (first compound 0.253 µM); 0.257 in test [1] (first compound 0.8 µM); 0.311 in test [1] (first compound 2.53 µM). The relative viability in test [1] (first compound 8 µM) was found to be 0.285.
As to NCI-H1975, the relative viability with Tosedostat + Bortezomib (first compound 0.02 µM) amounted to 0.427; with Tosedostat + Bortezomib (first compound 0.06325 µM), 0.454; with Tosedostat + Bortezomib (first compound 0.2 µM) it was 0.36; with Tosedostat + Bortezomib (first compound 0.6325 µM) it was 0.347; with Tosedostat + Bortezomib (first compound 2 µM) it was 0.304; with Tosedostat + Pictilisib (first compound 0.02 µM), 0.28. Further, the relative viability with Tosedostat + Pictilisib (first compound 0.06325 µM) amounted to 0.311; with Tosedostat + Pictilisib (first compound 0.2 µM), 0.252; with Tosedostat + Pictilisib (first compound 0.6325 µM) it was 0.25; with Tosedostat + Pictilisib (first compound 2 µM) it was 0.241; with Tosedostat + Olaparib (first compound 0.02 µM) it was 0.909; with Tosedostat + Olaparib (first compound 0.06325 µM) it was 0.8. Besides, the relative viability with Tosedostat + Olaparib (first compound 0.2 µM) was determined as 0.824; with Tosedostat + Olaparib (first compound 0.6325 µM), 0.63; in the test with Tosedostat + Olaparib (first compound 2 µM), 0.659; in test [1] (first compound 0.8 µM), 0.361; in test [1] (first compound 2.53 µM), 0.581; in test [1] (first compound 8 µM), 0.546.
NCI-H1993: the relative viability worked out at 1.02 with Tosedostat + Bortezomib (first compound 0.02 µM); 1.22 with Tosedostat + Bortezomib (first compound 0.06325 µM); 0.852 in the test with Tosedostat + Bortezomib (first compound 0.2 µM); 0.872 in the test with Tosedostat + Bortezomib (first compound 0.6325 µM); 0.642 with Tosedostat + Bortezomib (first compound 2 µM); 0.818 with Tosedostat + Pictilisib (first compound 0.02 µM). Further, the relative viability with Tosedostat + Pictilisib (first compound 0.06325 µM) is 0.863; with Tosedostat + Pictilisib (first compound 0.2 µM) it was 1.01; with Tosedostat + Pictilisib (first compound 0.6325 µM) it was 0.84; with Tosedostat + Pictilisib (first compound 2 µM) it was 0.688; with Tosedostat + Olaparib (first compound 0.02 µM), 1.13; with Tosedostat + Olaparib (first compound 0.06325 µM), 1.04. In addition, the relative viability with Tosedostat + Olaparib (first compound 0.2 µM) amounted to 0.943; with Tosedostat + Olaparib (first compound 0.6325 µM), 0.736; with Tosedostat + Olaparib (first compound 2 µM), 0.769; in test [1] (first compound 0.253 µM), 0.537; in test [1] (first compound 0.8 µM), 0.564; in test [1] (first compound 2.53 µM) it was 0.768. Moreover, in test [1] (first compound 8 µM), the relative viability was found to be 0.549.
Consider NCI-H2009, for which the relative viability in the test with Tosedostat + Bortezomib (first compound 0.02 µM) was 1.3; with Tosedostat + Bortezomib (first compound 0.06325 µM) it was 1.02; in the test with Tosedostat + Bortezomib (first compound 0.2 µM), 0.971; in the test with Tosedostat + Bortezomib (first compound 0.6325 µM), 0.926; in the test with Tosedostat + Bortezomib (first compound 2 µM), 0.728; with Tosedostat + Pictilisib (first compound 0.02 µM), 1.14. For the same cell line, the relative viability in the test with Tosedostat + Pictilisib (first compound 0.06325 µM) amounted to 0.841; with Tosedostat + Pictilisib (first compound 0.2 µM), 0.682; with Tosedostat + Pictilisib (first compound 0.6325 µM), 0.732; with Tosedostat + Pictilisib (first compound 2 µM) it was 0.524; with Tosedostat + Olaparib (first compound 0.02 µM) it was 0.702; with Tosedostat + Olaparib (first compound 0.06325 µM) it was 0.592. Moreover, the relative viability was determined as 0.661 with Tosedostat + Olaparib (first compound 0.2 µM); 0.603 with Tosedostat + Olaparib (first compound 0.6325 µM); 0.544 with Tosedostat + Olaparib (first compound 2 µM); 0.309 in test [1] (first compound 0.253 µM); 0.289 in test [1] (first compound 0.8 µM); 0.307 in test [1] (first compound 2.53 µM). Besides, the relative viability in test [1] (first compound 8 µM) is 0.327.
Consider NCI-H2023, for which the relative viability with Tosedostat + Bortezomib (first compound 0.02 µM) turned out to be 0.961; in the test with Tosedostat + Bortezomib (first compound 0.06325 µM), 0.965; with Tosedostat + Bortezomib (first compound 0.2 µM), 0.888; with Tosedostat + Bortezomib (first compound 0.6325 µM), 0.649; in the test with Tosedostat + Bortezomib (first compound 2 µM), 0.817; in the test with Tosedostat + Pictilisib (first compound 0.02 µM) it was 0.247. Also, the relative viability came out at 0.233 in the test with Tosedostat + Pictilisib (first compound 0.06325 µM); 0.251 in the test with Tosedostat + Pictilisib (first compound 0.2 µM); 0.139 in the test with Tosedostat + Pictilisib (first compound 0.6325 µM); 0.198 with Tosedostat + Pictilisib (first compound 2 µM); 0.509 in the test with Tosedostat + Olaparib (first compound 0.02 µM); 0.424 in the test with Tosedostat + Olaparib (first compound 0.06325 µM). Also, the relative viability in the test with Tosedostat + Olaparib (first compound 0.2 µM) was found to be 0.332; with Tosedostat + Olaparib (first compound 0.6325 µM), 0.348; in the test with Tosedostat + Olaparib (first compound 2 µM), 0.372; in test [1] (first compound 0.253 µM), 0.429; in test [1] (first compound 0.8 µM), 0.442; in test [1] (first compound 2.53 µM) it was 0.476. Also, the relative viability in test [1] (first compound 8 µM) is 0.402.
